Laboratory results taken from publication PMC10786919, “Design-rules for stapled peptides with in vivo activity and their application to Mdm2/X antagonists” (Nature Communications, 2024).
Like-named read-outs stand apart in the source and are kept apart here. Positions of bridges follow the written chain, without caps; N, C: chain ends. Non-standard residues stand in square brackets, D forms with d. Residues, ends and D or L forms follow the SMILES beside them. R8 = C=CCCCCCC[C@@](C)(N)C(=O)O; S5 = C=CCCC[C@](C)(N)C(=O)O; Ahx = NCCCCCC(=O)O

Legend:
Type in all cases: cell-based
[1] = Lactate dehydrogenase (LDH) release assay; details: LDH: Cytotoxicity assay EC50
Method in brief: (§1)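 HCT116 cells stably carrying a p53-responsive β-lactamase reporter, seeded at 8000 cells/well, exposed to compound with 0.5% final DMSO. LDH release read with the CytoTox-ONE membrane integrity kit. Values are geometric means of at least three biological replicates.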

HCT116 cells = test: Lactate dehydrogenase (LDH) release assay
Method in brief: as §1

[2] = system: p53 responsive β-lactamase reporter in HCT116 cells; test: cells
Experimental: HCT116 cells were stably transfected with a p53 responsive β-lactamase reporter and expanded in McCoy’s 5 A Medium with 10% fetal bovine serum (FBS), Blasticidin, and Penicillin/Streptomycin and then transferred to 1.5 ml freezing vials and stored under liquid nitrogen in growth media containing 5% DMSO. […] The cells were then seeded into a 384-well plate at a density of 8000 cells per well. […] The final working concentration of DMSO was 0.5%. β-lactamase activity was detected using the ToxBLAzer Dual Screen (Invitrogen), as per the manufacturer’s instructions. Measurements were made using the Envision multiplate reader (Perkin–Elmer). […] Measurements were taken a minimum of three times (biological replicates) and values are reported as geometric means of the replicates.

[3] = system: Jump-In T-REx CHO-K1 BLA cells; test: cells
Experimental: This assay was based on Jump-In™ T-REx™ CHO-K1 BLA cells containing a stably integrated β-lactamase under the control of an inducible cytomegalovirus (CMV) promoter. Cells were maintained in Dulbecco’s […] Eagle Medium (DMEM) with 10% fetal bovine serum (FBS), Blasticidin, and Penicillin/Streptomycin and then transferred to 1.5 ml freezing vials and stored under liquid nitrogen in growth media containing 5% DMSO. […] Cells were seeded into a 384-well plate at a density of 4000 cells per well. Peptides were then dispensed to each well using a liquid handler, ECHO 555 and incubated for 16 h. The final working concentration of DMSO was 0.5%. β-lactamase activity was detected using the ToxBLAzer Dual Screen (Invitrogen), as per the manufacturer’s instructions. Measurements were carried out using the Envision multiplate reader (Perkin–Elmer). Counterscreen activity was defined as the amount of β-lactamase activity induced by tetracycline. Measurements were taken a minimum of three times (biological replicates) and values are reported as geometric means of the replicates.

[4] = 0% FBS 4Hr, read-out: p53 reporter assay EC50

SMILES | EC50 [1] | LDH: Cytotoxicity assay % Effect (HCT116 cells) | EC50 [2, 4] | EC50 ([2]; 0% FBS 4Hr, read-out: p53 reporter assay: EC50) | EC50 ([2]; 0% FBS 16Hr, read-out: p53 reporter assay EC50) | TETCHO: Counterscreen % Effect ([3]; 0% FBS 4Hr) | EC50 ([3]; 0% FBS 4Hr, read-out: TETCHO: Counterscreen EC50) | TETCHO: Counterscreen % Effect ([3]; 0% FBS 16Hr)
CC(=O)N1CCC[C@H]1C(=O)N[C@@H](CCCNC(=N)N)C(=O)N[C@@H](Cc1ccccc1)C(=O)N[C@]1(C)CCCCCCC=CCCC[C@@](C)(C(N)=O)NC(=O)[C@H](CC(C)C)NC(=O)[C@H](CCCNC(=N)N)NC(=O)[C@H](CC(C)C)NC(=O)[C@H](Cc2c[nH]c3ccccc23)NC(=O)[C@H](Cc2ccc(O)cc2)NC(=O)[C@H](CCC(=O)O)NC1=O [MP-031] (Ac-PRF[R8]EYWLRL[S5]-NH2; staple 4-11) | > 50 µM | -3.388% | 32.4 µM | – | – | – | – | –
CC(=O)N[C@H](C(=O)N[C@@H](CO)C(=O)N[C@@H](Cc1ccccc1)C(=O)N[C@]1(C)CCCCCCC=CCCC[C@@](C)(C(N)=O)NC(=O)[C@H](CC(C)C)NC(=O)[C@H](CCCNC(=N)N)NC(=O)[C@H](Cc2ccc(O)cc2)NC(=O)[C@H](Cc2c[nH]c3ccccc23)NC(=O)[C@H](Cc2ccc(O)cc2)NC(=O)[C@H](CCC(=O)O)NC1=O)[C@@H](C)O [MP-033] (Ac-TSF[R8]EYWYRL[S5]-NH2; staple 4-11) | > 50 µM | 1.548% | 13.6 µM | – | – | – | – | –
CC(=O)N[C@H](C(=O)N[C@@H](CO)C(=O)N[C@@H](Cc1ccccc1)C(=O)N[C@]1(C)CCCCCCC=CCCC[C@@](C)(C(N)=O)NC(=O)[C@H](CC(C)C)NC(=O)[C@H](CCCCN)NC(=O)[C@H](CC(C)C)NC(=O)[C@H](Cc2c[nH]c3ccccc23)NC(=O)[C@H](Cc2ccc(O)cc2)NC(=O)[C@H](CCC(=O)O)NC1=O)[C@@H](C)O [MP-034] (Ac-TSF[R8]EYWLKL[S5]-NH2; staple 4-11) | > 50 µM | 3.672% | 12.8 µM | – | – | – | – | –
CC(=O)N[C@H](C(=O)N[C@@H](CO)C(=O)N[C@@H](Cc1ccccc1)C(=O)N[C@]1(C)CCCC=CCCCCCC[C@@](C)(C(N)=O)NC(=O)[C@H](CC(C)C)NC(=O)[C@H](CC(C)C)NC(=O)[C@H](C)NC(=O)[C@H](Cc2c[nH]c3ccccc23)NC(=O)[C@H](Cc2ccc(O)cc2)NC(=O)[C@H](CCC(=O)O)NC1=O)[C@@H](C)O [MP-035] | > 50 µM | 37.58% | 8.8 µM | – | – | – | – | –
CC(=O)N[C@@H](CCCNC(=N)N)C(=O)N[C@@H](CCCNC(=N)N)C(=O)NCCCCCC(=O)N[C@H](C(=O)N[C@@H](CO)C(=O)N[C@@H](Cc1ccccc1)C(=O)N[C@]1(C)CCCCCCC=CCCC[C@@](C)(C(=O)N[C@@H](CCC(=O)O)C(=O)N[C@@H](CC(N)=O)C(=O)N[C@@H](Cc2ccccc2)C(N)=O)NC(=O)[C@H](CC(C)C)NC(=O)[C@H](CC(C)C)NC(=O)[C@H](C)NC(=O)[C@H](Cc2c[nH]c3ccccc23)NC(=O)[C@H](Cc2ccc(O)cc2)NC(=O)[C@H](CCC(=O)O)NC1=O)[C@@H](C)O [MP-037] (Ac-RR[Ahx]TSF[R8]EYWALL[S5]ENF-NH2; staple 7-14) | > 50 µM | 3.464% | 20.2 µM | – | – | – | – | –
CC(=O)N[C@@H](CCCNC(=N)N)C(=O)NCCCCCC(=O)N[C@H](C(=O)N[C@@H](CO)C(=O)N[C@@H](Cc1ccccc1)C(=O)N[C@]1(C)CCCCCCC=CCCC[C@@](C)(C(=O)N[C@@H](CCC(=O)O)C(=O)N[C@@H](CC(N)=O)C(=O)N[C@@H](Cc2ccccc2)C(N)=O)NC(=O)[C@H](CC(C)C)NC(=O)[C@H](CC(C)C)NC(=O)[C@H](C)NC(=O)[C@H](Cc2c[nH]c3ccccc23)NC(=O)[C@H](Cc2ccc(O)cc2)NC(=O)[C@H](CCC(=O)O)NC1=O)[C@@H](C)O [MP-038] | > 50 µM | 5.515% | 2.49 µM | – | – | – | – | –
CC(=O)N[C@@H](CCCCN)C(=O)N[C@@H](CCCCN)C(=O)NCCCCCC(=O)N[C@H](C(=O)N[C@@H](CO)C(=O)N[C@@H](CC(C)C)C(=O)N[C@]1(C)CCCCCCC=CCCC[C@@](C)(C(=O)N[C@@H](CCC(=O)O)C(=O)N[C@@H](CC(N)=O)C(=O)N[C@@H](Cc2ccccc2)C(N)=O)NC(=O)[C@H](Cc2c[nH]c3ccccc23)NC(=O)[C@H](CC(C)C)NC(=O)[C@H](C)NC(=O)[C@H](Cc2ccccc2)NC(=O)[C@H](Cc2ccc(O)cc2)NC(=O)[C@H](CCC(=O)O)NC1=O)[C@@H](C)O [MP-039] (Ac-KK[Ahx]TSL[R8]EYFALW[S5]ENF-NH2; staple 7-14) | > 50 µM | 28.85% | > 50 µM | – | – | – | – | –
CC(=O)N[C@H](C(=O)N[C@@H](CO)C(=O)N[C@@H](Cc1ccccc1)C(=O)N[C@]1(C)CCCCCCC=CCCC[C@@](C)(C(=O)N[C@@H](CCC(N)=O)C(=O)N[C@@H](CC(N)=O)C(=O)N[C@@H](Cc2ccccc2)C(N)=O)NC(=O)[C@H](CC(C)C)NC(=O)[C@H](CC(C)C)NC(=O)[C@H](C)NC(=O)[C@H](Cc2c[nH]c3ccccc23)NC(=O)[C@H](Cc2ccc(O)cc2)NC(=O)[C@H](CCC(=O)O)NC1=O)[C@@H](C)O [MP-2026] | > 50 µM | 23.2% | 0.98 µM | – | – | – | – | –
CC(=O)N1CCC[C@H]1C(=O)N[C@@H](CCCNC(=N)N)C(=O)N[C@@H](Cc1ccccc1)C(=O)N[C@]1(C)CCCCCCC=CCCC[C@@](C)(C(=O)N[C@@H](CCC(=O)O)C(N)=O)NC(=O)[C@H](CC(C)C)NC(=O)[C@H](CCCNC(=N)N)NC(=O)[C@H](Cc2ccc(O)cc2)NC(=O)[C@H](Cc2c[nH]c3ccccc23)NC(=O)[C@H](Cc2ccc(O)cc2)NC(=O)[C@H](CCC(=O)O)NC1=O [MP-2030] (Ac-PRF[R8]EYWYRL[S5]E-NH2; staple 4-11) | > 50 µM | 32.25% | 6.62 µM | – | – | – | – | –
CC(=O)N1CCC[C@H]1C(=O)N[C@@H](CCCNC(=N)N)C(=O)N[C@@H](Cc1ccccc1)C(=O)N[C@]1(C)CCCCCCC=CCCC[C@@](C)(C(N)=O)NC(=O)[C@H](CC(C)C)NC(=O)[C@H](CCCNC(=N)N)NC(=O)[C@H](Cc2ccc(O)cc2)NC(=O)[C@H](Cc2c[nH]c3ccccc23)NC(=O)[C@H](Cc2ccc(O)cc2)NC(=O)[C@H](CCC(=O)O)NC1=O [MP-2032] (Ac-PRF[R8]EYWYRL[S5]-NH2; staple 4-11) | > 50 µM | -1.239% | 25.7 µM | – | – | – | – | –
CC(=O)N[C@H](C(=O)N[C@@H](CO)C(=O)N[C@@H](CC(C)C)C(=O)N[C@]1(C)CCCCCCC=CCCC[C@@](C)(C(N)=O)NC(=O)[C@H](Cc2c[nH]c3ccccc23)NC(=O)[C@H](CC(C)C)NC(=O)[C@H](C)NC(=O)[C@H](Cc2ccccc2)NC(=O)[C@H](Cc2ccc(O)cc2)NC(=O)[C@H](CCC(=O)O)NC1=O)[C@@H](C)O [MP-2040] (Ac-TSL[R8]EYFALW[S5]-NH2; staple 4-11) | > 50 µM | 24.89% | 7.46 µM | – | – | – | – | –
CC(=O)N[C@@H](CCCCN)C(=O)N[C@@H](CC(C)C)C(=O)N[C@@H](C)C(=O)N[C@@H](CCCCN)C(=O)NCCCCCC(=O)N[C@H](C(=O)N[C@@H](CO)C(=O)N[C@@H](Cc1ccccc1)C(=O)N[C@]1(C)CCCCCCC=CCCC[C@@](C)(C(=O)N[C@@H](CCC(=O)O)C(=O)N[C@@H](CC(N)=O)C(=O)N[C@@H](Cc2ccccc2)C(N)=O)NC(=O)[C@H](CC(C)C)NC(=O)[C@H](CC(C)C)NC(=O)[C@H](C)NC(=O)[C@H](Cc2c[nH]c3ccccc23)NC(=O)[C@H](Cc2ccc(O)cc2)NC(=O)[C@H](CCC(=O)O)NC1=O)[C@@H](C)O [MP-2041] (Ac-KLAK[Ahx]TSF[R8]EYWALL[S5]ENF-NH2; staple 9-16) | > 50 µM | 5.898% | 6.06 µM | – | – | – | – | –
CC(=O)N[C@@H](CCCCN)C(=O)NCCCCCC(=O)N[C@H](C(=O)N[C@@H](CO)C(=O)N[C@@H](Cc1ccccc1)C(=O)N[C@]1(C)CCCCCC/C=C\CCC[C@@](C)(C(=O)N[C@@H](CCC(=O)O)C(=O)N[C@@H](CC(N)=O)C(=O)N[C@@H](Cc2ccccc2)C(N)=O)NC(=O)[C@H](CC(C)C)NC(=O)[C@H](CC(C)C)NC(=O)[C@H](C)NC(=O)[C@H](Cc2c[nH]c3ccccc23)NC(=O)[C@H](Cc2ccc(O)cc2)NC(=O)[C@H](CCC(=O)O)NC1=O)[C@@H](C)O [MP-2094] | – | – | – | 6.49 µM | – | – | – | –
CC(=O)N[C@@H](CCCCN)C(=O)N[C@@H](CCCCN)C(=O)NCCCCCC(=O)N[C@H](C(=O)N[C@@H](CO)C(=O)N[C@@H](Cc1ccccc1)C(=O)N[C@]1(C)CCCCCCC=CCCC[C@@](C)(C(=O)N[C@@H](CCC(=O)O)C(=O)N[C@@H](CC(N)=O)C(=O)N[C@@H](Cc2ccccc2)C(N)=O)NC(=O)[C@H](CC(C)C)NC(=O)[C@H](CC(C)C)NC(=O)[C@H](C)NC(=O)[C@H](Cc2c[nH]c3ccccc23)NC(=O)[C@H](Cc2ccc(O)cc2)NC(=O)[C@H](CCC(=O)O)NC1=O)[C@@H](C)O [MP-5363] (Ac-KK[Ahx]TSF[R8]EYWALL[S5]ENF-NH2; staple 7-14) | – | – | 3.42 µM | – | 3.25 µM | 48.32% | > 50 µM | 4.17%
